# Measurements from US11498899B2, “Nitrone herbicides” (FMC Corporation, priority 2016, dated 2022).
# Tests used:
# [1] = tested on: barnyardgrass (Echinochloa crus-galli); assay: Test A preemergence, visual injury rating 0-100 (0 no effect, 100 complete control); assay type: in vivo
# rice (Oryza sativa) = assay: Test B flooded paddy test, visual rating 0-100 (0 no effect, 100 complete control); conditions: Flood, 250 g ai/ha, applied to paddy water, rated after 13 to 15 days
# kochia (Kochia scoparia) [2] = assay: Test A preemergence, visual injury rating 0-100; assay type: in vivo
# [3] = tested on: pigweed (Amaranthus retroflexus); assay: Test A preemergence, visual injury rating 0-100; assay type: in vivo
# [4] = tested on: ryegrass, Italian (Italian ryegrass, Lolium multiflorum); assay: Test A preemergence, visual injury rating 0-100; assay type: in vivo
# [5] = tested on: ragweed (common ragweed, Ambrosia elatior); assay: Test A preemergence, visual injury rating 0-100; assay type: in vivo
# [6] = tested on: foxtail, giant (giant foxtail, Setaria faberii); assay: Test A preemergence, visual injury rating 0-100; assay type: in vivo
# [7] = tested on: wheat (Triticum aestivum); assay: Test A postemergence, visual injury rating 0-100; assay type: in vivo; conditions: 0 to 100 scale
# corn (Zea mays) = assay: Test A postemergence, visual injury rating 0-100; assay type: in vivo; conditions: 0 to 100 scale
# kochia (Kochia scoparia) [8] = assay: Test A postemergence, visual injury rating 0-100; assay type: in vivo; conditions: 0 to 100 scale
# [9] = tested on: pigweed (Amaranthus retroflexus); assay: Test A postemergence, visual injury rating 0-100; assay type: in vivo; conditions: 0 to 100 scale
# [10] = tested on: galium (catchweed bedstraw, Galium aparine); assay: Test A postemergence, visual injury rating 0-100; assay type: in vivo; conditions: 0 to 100 scale
# [11] = tested on: barnyardgrass (Echinochloa crus-galli); assay: Test A postemergence, visual injury rating 0-100; assay type: in vivo; conditions: 0 to 100 scale
# [12] = tested on: ryegrass, Italian (Italian ryegrass, Lolium multiflorum); assay: Test A postemergence, visual injury rating 0-100; assay type: in vivo; conditions: 0 to 100 scale
# [13] = tested on: ragweed (common ragweed, Ambrosia elatior); assay: Test A postemergence, visual injury rating 0-100; assay type: in vivo; conditions: 0 to 100 scale
# [14] = tested on: blackgrass (Alopecurus myosuroides); assay: Test A postemergence, visual injury rating 0-100; assay type: in vivo; conditions: 0 to 100 scale
# [15] = tested on: foxtail, giant (giant foxtail, Setaria faberii); assay: Test A postemergence, visual injury rating 0-100; assay type: in vivo; conditions: 0 to 100 scale
# [16] = tested on: barnyardgrass (Echinochloa crus-galli); assay: Test B flooded paddy test, visual rating 0-100; conditions: Flood, 250 g ai/ha, applied to paddy water, rated after 13 to 15 days
# [17] = tested on: ducksalad (Heteranthera limosa); assay: Test B flooded paddy test, visual rating 0-100; conditions: Flood, 250 g ai/ha, applied to paddy water, rated after 13 to 15 days
SMILES,Barnyardgrass plant response rating (0 to 100 scale) ([1]; 125 g ai/ha),Barnyardgrass plant response rating (0 to 100 scale) ([1]; 500 g ai/ha),Rice plant response rating (0 to 100 scale) (rice (Oryza sativa)),Kochia plant response rating (0 to 100 scale) (kochia (Kochia scoparia) [2]; 125 g ai/ha),Kochia plant response rating (0 to 100 scale) (kochia (Kochia scoparia) [2]; 500 g ai/ha),Pigweed plant response rating (0 to 100 scale) ([3]; 125 g ai/ha),Pigweed plant response rating (0 to 100 scale) ([3]; 500 g ai/ha),"Ryegrass, Italian plant response rating (0 to 100 scale) ([4]; 125 g ai/ha)","Ryegrass, Italian plant response rating (0 to 100 scale) ([4]; 500 g ai/ha)",Ragweed plant response rating (0 to 100 scale) ([5]; 125 g ai/ha),Ragweed plant response rating (0 to 100 scale) ([5]; 500 g ai/ha),"Foxtail, Giant plant response rating (0 to 100 scale) ([6]; 125 g ai/ha)","Foxtail, Giant plant response rating (0 to 100 scale) ([6]; 500 g ai/ha)",Wheat plant response rating ([7]; 125 g ai/ha),Wheat plant response rating ([7]; 500 g ai/ha),Corn plant response rating (corn (Zea mays); 125 g ai/ha),Corn plant response rating (corn (Zea mays); 500 g ai/ha),Kochia plant response rating (kochia (Kochia scoparia) [8]; 125 g ai/ha),Kochia plant response rating (kochia (Kochia scoparia) [8]; 500 g ai/ha),Pigweed plant response rating ([9]; 125 g ai/ha),further results
COc1cc(C2CC(C)=[N+]([O-])C2C(=O)Nc2cccc(F)c2F)cc(C)n1 (racemic) [Compound 57],90,100,0,60,60,0,20,20,90,0,30,90,100,20,90,60,90,0,30,0,"Pigweed plant response rating ([9]; 500 g ai/ha): 0; Galium plant response rating ([10]; 125 g ai/ha): 30; Galium plant response rating ([10]; 500 g ai/ha): 40; Barnyardgrass plant response rating ([11]; 125 g ai/ha): 80; Barnyardgrass plant response rating ([11]; 500 g ai/ha): 80; Ryegrass, Italian plant response rating ([12]; 125 g ai/ha): 40; Ryegrass, Italian plant response rating ([12]; 500 g ai/ha): 90; Ragweed plant response rating ([13]; 125 g ai/ha): 0; Ragweed plant response rating ([13]; 500 g ai/ha): 0; Blackgrass plant response rating ([14]; 125 g ai/ha): 80; Blackgrass plant response rating ([14]; 500 g ai/ha): 90; Foxtail, Giant plant response rating ([15]; 125 g ai/ha): 40; Foxtail, Giant plant response rating ([15]; 500 g ai/ha): 90; Barnyardgrass plant response rating (0 to 100 scale) [16]: 55; Ducksalad plant response rating (0 to 100 scale) [17]: 0"
CC1=[N+]([O-])C(C(=O)Nc2cccc(F)c2F)C(c2cccc(Oc3ccc(F)cc3)c2)C1 (racemic) [Compound 58],10,90,0,0,0,0,0,10,80,0,90,40,90,10,20,0,40,0,20,0,"Pigweed plant response rating ([9]; 500 g ai/ha): 30; Galium plant response rating ([10]; 125 g ai/ha): 30; Galium plant response rating ([10]; 500 g ai/ha): 50; Barnyardgrass plant response rating ([11]; 125 g ai/ha): 10; Barnyardgrass plant response rating ([11]; 500 g ai/ha): 30; Ryegrass, Italian plant response rating ([12]; 125 g ai/ha): 20; Ryegrass, Italian plant response rating ([12]; 500 g ai/ha): 50; Ragweed plant response rating ([13]; 125 g ai/ha): 0; Ragweed plant response rating ([13]; 500 g ai/ha): 0; Blackgrass plant response rating ([14]; 125 g ai/ha): 20; Blackgrass plant response rating ([14]; 500 g ai/ha): 70; Foxtail, Giant plant response rating ([15]; 125 g ai/ha): 30; Foxtail, Giant plant response rating ([15]; 500 g ai/ha): 70; Barnyardgrass plant response rating (0 to 100 scale) [16]: 0; Ducksalad plant response rating (0 to 100 scale) [17]: 0"
CC1=[N+]([O-])C(C(=O)Nc2cccc(F)c2F)C(c2ccc(C(F)(F)F)nc2)C1 (racemic) [Compound 60],90,100,0,10,80,50,80,10,70,0,90,90,100,20,70,20,60,0,10,0,"Pigweed plant response rating ([9]; 500 g ai/ha): 10; Galium plant response rating ([10]; 125 g ai/ha): 20; Galium plant response rating ([10]; 500 g ai/ha): 60; Barnyardgrass plant response rating ([11]; 125 g ai/ha): 40; Barnyardgrass plant response rating ([11]; 500 g ai/ha): 90; Ryegrass, Italian plant response rating ([12]; 125 g ai/ha): 0; Ryegrass, Italian plant response rating ([12]; 500 g ai/ha): 40; Ragweed plant response rating ([13]; 125 g ai/ha): 0; Ragweed plant response rating ([13]; 500 g ai/ha): 40; Blackgrass plant response rating ([14]; 125 g ai/ha): 10; Blackgrass plant response rating ([14]; 500 g ai/ha): 70; Foxtail, Giant plant response rating ([15]; 125 g ai/ha): 70; Foxtail, Giant plant response rating ([15]; 500 g ai/ha): 90; Barnyardgrass plant response rating (0 to 100 scale) [16]: 40; Ducksalad plant response rating (0 to 100 scale) [17]: 0"
CC1=[N+]([O-])C(C(=O)Nc2cccc(F)c2F)C(c2ccc(C)c(C(F)(F)F)c2)C1 (racemic) [Compound 62],90,90,0,0,60,10,70,90,90,0,60,90,90,40,50,60,80,0,20,0,"Pigweed plant response rating ([9]; 500 g ai/ha): 10; Galium plant response rating ([10]; 125 g ai/ha): 40; Galium plant response rating ([10]; 500 g ai/ha): 50; Barnyardgrass plant response rating ([11]; 125 g ai/ha): 70; Barnyardgrass plant response rating ([11]; 500 g ai/ha): 80; Ryegrass, Italian plant response rating ([12]; 125 g ai/ha): 70; Ryegrass, Italian plant response rating ([12]; 500 g ai/ha): 80; Ragweed plant response rating ([13]; 125 g ai/ha): 0; Ragweed plant response rating ([13]; 500 g ai/ha): 50; Blackgrass plant response rating ([14]; 125 g ai/ha): 40; Blackgrass plant response rating ([14]; 500 g ai/ha): 70; Foxtail, Giant plant response rating ([15]; 125 g ai/ha): 50; Foxtail, Giant plant response rating ([15]; 500 g ai/ha): 80; Barnyardgrass plant response rating (0 to 100 scale) [16]: 55; Ducksalad plant response rating (0 to 100 scale) [17]: 0"
